Measurements taken from PMC6627609, “Targeting Quorum Sensing: High-Throughput Screening to Identify Novel LsrK Inhibitors” (International Journal of Molecular Sciences, 2019).
Structures can show the parent of a compound that is named as a salt.

Target: LsrK (Salmonella typhimurium, UniProt Q8ZKQ6)
Assay: biochemical
Format: biochemical, S. typhimurium
Conditions: not given

LsrK, sequence (Q8ZKQ6 whole entry): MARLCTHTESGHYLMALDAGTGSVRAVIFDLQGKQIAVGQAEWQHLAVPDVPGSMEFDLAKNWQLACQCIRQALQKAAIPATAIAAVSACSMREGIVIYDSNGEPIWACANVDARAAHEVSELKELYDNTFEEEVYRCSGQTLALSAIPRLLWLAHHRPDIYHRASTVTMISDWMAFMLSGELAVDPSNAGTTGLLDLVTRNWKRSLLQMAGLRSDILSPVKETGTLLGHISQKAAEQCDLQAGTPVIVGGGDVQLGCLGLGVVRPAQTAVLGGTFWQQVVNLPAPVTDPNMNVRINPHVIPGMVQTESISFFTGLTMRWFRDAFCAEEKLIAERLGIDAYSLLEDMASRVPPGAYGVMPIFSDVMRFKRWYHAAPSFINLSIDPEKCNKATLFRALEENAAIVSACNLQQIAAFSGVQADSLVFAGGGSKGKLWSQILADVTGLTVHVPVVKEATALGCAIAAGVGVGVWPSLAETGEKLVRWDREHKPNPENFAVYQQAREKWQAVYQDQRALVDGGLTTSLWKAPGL

Row | Compound | inhibition at 50 µM [%] | IC50 [µM]
1 | CC(=O)Oc1cccc(O)c1 [RESORCINOL MONOACETATE] | 1 | –
2 | O=C(O)c1ccc2c(c1)OCO2 [PIPERONYLIC ACID] | 1 | –
3 | O=C(O)[C@]1(O)C[C@@H](O)[C@@H](O)[C@H](O)C1 [QUINIC ACID] | 0 | –
4 | C=C1C(=O)O[C@H]2[C@H]1CC/C(C)=C/CC[C@@]1(C)O[C@@H]21 [PARTHENOLIDE] | 3 | –
5 | O=C(/C=C/c1ccccc1)c1ccc(O)cc1 [4'-HYDROXYCHALCONE] | 38 | –
6 | CC[C@H](/C=C/[C@@H](C)[C@H]1CC[C@H]2[C@@H]3CC=C4C[C@@H](O)CC[C@]4(C)[C@H]3CC[C@]12C)C(C)C [STIGMASTEROL] | 1 | –
7 | COc1ccccc1OCC(O)CO (stereo not drawn) [GUAIFENESIN] | 0 | –
8 | OC[C@H]1O[C@@](CO)(O[C@H]2O[C@H](CO)[C@@H](O)[C@H](O)[C@H]2O)[C@@H](O[C@H]2O[C@H](CO)[C@@H](O)[C@H](O)[C@H]2O)[C@@H]1O [MELEZITOSE] | 2 | –
9 | COc1c(C)c2c(c(O)c1C/C=C(\C)CCC(=O)O)C(=O)OC2 [MYCOPHENOLIC ACID] | 1 | –
10 | CC1=C(/C=C/C(C)=C/C=C/C(C)=C/CO)C(C)(C)CCC1 [RETINOL] | 0 | –
11 | CC(C)(O/N=C(\C(=O)N[C@@H]1C(=O)N2C(C(=O)[O-])=C(C[n+]3ccccc3)CS[C@H]12)c1csc(N)n1)C(=O)O [CEFTAZIDIME] | 70 | –
12 | CC(=O)N[C@@H](CC(C)C)C(=O)O [ACETYL-L-LEUCINE] | 0 | –
13 | COc1ncnc(NS(=O)(=O)c2ccc(N)cc2)c1OC [SULFADOXINE] | 1 | –
14 | CCn1cc(C(=O)O)c(=O)c2cc(F)c(N3CCNC(C)C3)c(F)c21 (stereo not drawn) [LOMEFLOXACIN HYDROCHLORIDE] | 0 | –
15 | O=C1C=C2CC3(O)COc4cc(O)ccc4C3=C2C=C1O (stereo not drawn) [BRAZILEIN] | 66 | –
16 | CNC[C@H](O)[C@@H](O)[C@H](O)[C@H](O)CO [MEGLUMINE] | 1 | –
17 | Cn1nnnc1SCC1=C(C(=O)O)N2C(=O)[C@@H](NC(=O)[C@H](O)c3ccccc3)[C@H]2SC1 [CEFAMANDOLE SODIUM] | 15 | –
18 | CC1=C(/C=C/C(C)=C/C=C/C(C)=C/C=C/C=C(C)/C=C/C=C(C)/C=C/C2=C(C)C(=O)[C@@H](O)CC2(C)C)C(C)(C)C[C@H](O)C1=O [ASTAXANTHIN] | 1 | –
19 | CC(=O)c1c(O)c(C)c(O)c2c1OC1=CC(=O)C(C(C)=O)C(=O)C12C (stereo not drawn) [USNIC ACID] | 204 | –

Row | Compound | inhibition at 50 µM [%] | IC50 [µM]
20 | CC(=O)Oc1ccc(/C=C/c2cc(OC(C)=O)cc(OC(C)=O)c2)cc1 [TRIACETYLRESVERATROL] | 1 | –
21 | Cc1cccc(C(=O)O)c1O [HYDROXYTOLUIC ACID] | 1 | –
22 | CCC(=O)O[C@H]1[C@H](O[C@@H]2[C@@H](C)[C@H](O[C@H]3C[C@@](C)(OC)[C@@H](O)[C@H](C)O3)[C@@H](C)C(=O)O[C@H](CC)[C@@](C)(O)[C@H](O)[C@@H](C)C(=O)[C@H](C)C[C@@]2(C)O)O[C@H](C)C[C@@H]1N(C)C [ERYTHROMYCIN ESTOLATE] | 10 | –
23 | C1CCC(C(CC2CCCCN2)C2CCCCC2)CC1 (stereo not drawn) [PERHEXILINE MALEATE] | 1 | –
24 | COc1c(-c2coc3cc4c(cc3c2=O)CC(O)C(C)(C)O4)ccc2c1C=CC(C)(C)O2 (stereo not drawn) [MUNDULONE] | 0 | –
25 | CC[N+](C)(CC)CCOC(=O)C(O)(c1ccccc1)C1CCCCC1 (stereo not drawn) [OXYPHENONIUM BROMIDE] | 4 | –
26 | c1ccc([C@H]2CN3CCSC3=N2)cc1 [LEVAMISOLE HYDROCHLORIDE] | 1 | –
27 | CC(CN(C)C)CN1c2ccccc2CCc2ccccc21 (stereo not drawn) [TRIMIPRAMINE MALEATE] | 111 | –
28 | CN(C)[C@@H]1C(O)=C(C(N)=O)C(=O)[C@@]2(O)C(O)=C3C(=O)c4c(O)ccc(Cl)c4[C@@H](O)[C@H]3C[C@@H]12 [DEMECLOCYCLINE HYDROCHLORIDE] | 109 | –
29 | COc1ccnc(C[S+]([O-])c2nc3ccc(OC(F)F)cc3[nH]2)c1OC (stereo not drawn) [PANTOPRAZOLE] | 3 | –
30 | COc1ccc(CN(CCN(C)C)c2ncccn2)cc1 [THONZYLAMINE HYDROCHLORIDE, reference compound] | 112 | 24
31 | C[N+](C)(C)CCOC(N)=O [CARBACHOL] | 1 | –
32 | COc1ccc2c(c1)OC1(O)COc3cc(OC)c(OC)cc3C1=C2 (stereo not drawn) [12a-HYDROXY-5-DEOXYDEHYDROMUNDUSERONE] | 0 | –
33 | O=C1OC2(c3ccc(O)cc3Oc3cc(O)ccc32)c2ccccc21 [FLUORESCEIN] | 1 | –
34 | CCCCC(=O)Oc1ccccc1C(=O)O [VALERYL SALYCILATE] | 1 | –
35 | CN(C)CCCN1c2ccccc2Sc2ccc(C(F)(F)F)cc21 [TRIFLUPROMAZINE HYDROCHLORIDE] | 122 | –
36 | COC1=CC(=O)C[C@@H](C)[C@]12Oc1c(Cl)c(OC)cc(OC)c1C2=O [GRISEOFULVIN] | 1 | –
37 | CCOC(N)=O | 0 | –
38 | CC[C@H]1OC(=O)C[C@@H](O)[C@H](C)[C@@H](O[C@@H]2O[C@H](C)[C@@H](O)[C@H](N(C)C)[C@H]2O)[C@@H](CCN2C[C@H](C)C[C@H](C)C2)C[C@@H](C)C(=O)/C=C/C(C)=C/[C@@H]1CO[C@@H]1O[C@H](C)[C@@H](O)[C@@H](OC)[C@H]1OC [TILMICOSIN] | 16 | –

Row | Compound | inhibition at 50 µM [%] | IC50 [µM]
39 | C=C1C[C@H]2[C@@H]3C=C(C)C4=CC(=O)CC[C@]4(C)[C@H]3CC[C@]2(C)[C@@]1(OC(C)=O)C(C)=O [MELENGESTROL ACETATE] | 1 | –
40 | NC(CO)C(=O)NNCc1ccc(O)c(O)c1O (stereo not drawn) [BENSERAZIDE HYDROCHLORIDE] | 97 | –
41 | O=C(/C=C/C(=O)Oc1ccccc1C(=O)O)Oc1ccccc1C(=O)O [[…]] | 2 | –
42 | NC(=O)c1cccnc1 [NIACINAMIDE] | 1 | –
43 | CC(COc1ccccc1)N(CCCl)Cc1ccccc1 (stereo not drawn) [PHENOXYBENZAMINE HYDROCHLORIDE] | 1 | –
44 | CCC(NC(C)C)C(O)c1ccc(O)c(O)c1 (stereo not drawn) [ISOETHARINE MESYLATE] | 2 | –
45 | CC(C)(O)[C@@H]1[C@H]2OC(=O)[C@@H]1[C@]1(O)C[C@H]3O[C@]34C(=O)O[C@H]2[C@]14C [PICROTIN] | 1 | –
46 | CO[C@@]1(NC(=O)Cc2cccs2)C(=O)N2C(C(=O)O)=C(COC(N)=O)CS[C@@H]21 [CEFOXITIN SODIUM] | 3 | –
47 | C/C=C/c1ccc2c(c1)OCO2 [ISOSAFROLE] | 1 | –
48 | C[C@H](CCC(=O)O)[C@H]1CC[C@H]2[C@@H]3[C@H](O)C[C@@H]4C[C@H](O)CC[C@]4(C)[C@H]3C[C@H](O)[C@]12C [CHOLIC ACID] | 0 | –
49 | COc1ccc(-c2coc3cc(O)ccc3c2=O)c(O)c1O [KOPARIN] | 118 | –
50 | CCN(CCCc1ccccc1)CCCc1ccccc1 [ALVERINE CITRATE] | 1 | –
51 | CC(C)/N=c1\cc2n(-c3ccc(Cl)cc3)c3ccccc3nc-2cc1Nc1ccc(Cl)cc1 [CLOFAZIMINE] | 0 | –
52 | C[n+]1ccccc1/C=N/O [PRALIDOXIME CHLORIDE] | 1 | –
53 | O=C(O[C@@H]1Cc2c(O)cc(O)cc2O[C@@H]1c1cc(O)c(=O)c2c(O)c(O)cc([C@H]3Oc4cc(O)cc(O)c4C[C@H]3O)c2c1)c1cc(O)c(O)c(O)c1 [THEAFLAVIN MONOGALLATES] | 129 | –
54 | CCN1CCCC1CNC(=O)c1cc(S(N)(=O)=O)ccc1OC (stereo not drawn) [SULPIRIDE] | 83 | –
55 | COc1cc(C)c(C(=O)Oc2cc(C)c(C(=O)O)c(O)c2C)c(OC)c1C [D[…]] | 35 | –
56 | COC1=CC(=O)O[C@@H](/C=C/c2ccccc2)C1 [KAWAIN] | 0 | –
57 | COc1ccc(CC(=O)c2ccc(O)cc2O)cc1 [ONONETIN] | 5 | –

Same assay, conditions: 50 µM

Row | Compound | Inhibition (%)
58 | CCn1cc(C(=O)O)c(=O)c2cc(F)c(N3CCN(C)CC3)cc21.CS(=O)(=O)O [PEFLOXACINE MESYLATE] | 2
59 | COc1ccc(-c2coc3cc(OC)ccc3c2=O)cc1 [7.4'-DIMETHOXYISOFLAVONE] | 1
60 | O=C(/C=C/c1ccccc1)c1ccc(O[C@@H]2O[C@H](CO)[C@@H](O)[C@H](O)[C@H]2O)cc1O [2'.4'-DIHYDROXYCHALCONE 4'-GLUCOSIDE] | 2
61 | CC1=CC(=O)[C@H]2C(C)(C)CCC[C@]2(C)[C@@]1(O)CCc1ccoc1 [SOLIDAGENONE] | 0
62 | CCOc1nc2cccc(C(=O)OC(C)OC(=O)OC3CCCCC3)c2n1Cc1ccc(-c2ccccc2-c2nn[nH]n2)cc1 (stereo not drawn) [CANDESARTAN CILEXTIL, reference compound] | 101
63 | C[C@H]1O[C@H](OC2[C@@H](O)[C@@H](O)C(O)[C@H](O)[C@H]2O)[C@@H](N)C[C@@H]1N=C(N)C(=O)O.Cl (stereo partly drawn) [KASUGAMYCIN HYDROCHLORIDE] | 1
64 | KHAYANTHONE | 11
65 | C[C@]12C=CC(=O)C=C1CC[C@@H]1[C@@H]2[C@@H](O)C[C@@]2(C)[C@H]1CC[C@]2(O)C(=O)COP(=O)([O-])[O-].[Na+].[Na+] [PREDNISOLONE SODIUM PHOSPHATE] | 0
66 | CCOc1ccc(C(=O)c2ccc(OC)c(O)c2O)cc1 [2.3-DIHYDROXY-4-METHOXY-4'-ETHOXYBENZOPHENONE] | 16
67 | O=C([O-])c1ccccc1-c1c2cc(Br)c(=O)cc-2oc2[c]([Hg+])c([O-])c(Br)cc12.[Na+].[Na+].[OH-] [MERBROMIN] | 119
68 | C[N+](C)(C)CC(O)CC(=O)O.[Cl-] (stereo not drawn) [CARNITINE (dl) HYDROCHLORIDE] | 3
69 | Cl.Cl.O=C1c2c(O)ccc(O)c2C(=O)c2c(NCCNCCO)ccc(NCCNCCO)c21 [MITOXANTHRONE HYDROCHLORIDE] | 2
70 | O.O=C(O)[C@@H]1[C@H]2C[C@H]3c4[nH]c5ccccc5c4CCN3C[C@@H]2CC[C@@H]1O [YOHIMBIC ACID HYDRATE] | 1
71 | N.N.[Cl][Pt][Cl] [CISPLATIN] | 2
72 | O=C1C(Cl)=C(Cl)C(=O)c2c(O)ccc(O)c21 [2.3-DICHLORO-5.8-DIHYDROXYNAPTHOQUINONE] | 30
73 | O=C([O-])CN(CCN(CC(=O)[O-])CC(=O)O)CC(=O)[O-].[Na+].[Na+].[Na+] [TRISODIUM ETHYLENEDIAMINE TETRACETATE] | 1

Same assay, conditions: read-out: IC50 against LsrK

Row | Compound | IC50 [µM]
74 | CCOc1nc2cccc(C(=O)OC(C)OC(=O)OC3CCCCC3)c2n1Cc1ccc(-c2ccccc2-c2nn[nH]n2)cc1 (stereo not drawn) [CANDESARTAN CILEXTIL, reference compound] | 14
